{
  "source": "patent US20070060615A1",
  "about": "“Method of Modulating Apoptosis Through Modulation of E2F1” (University of South Florida, priority 2003, published 2007)",
  "key": {"human Mcl-1": {"tested_on": "human Mcl-1", "assay": "Western blot of Mcl-1 in NIH3T3 cells stably expressing human Mcl-1", "type": "cell-based, murine", "conditions": "200 nM, up to 72 hours, FIG. 5A", "experimental": "(§1) The H1299 non-small cell lung cancer line are grown in DMEM supplemented with 2 mM L-glutamine (Life Technologies, Inc.), 5% fetal bovine serum (Hyclone), and 1% penicillin/streptomycin (Life Technologies, Inc.). NIH3T3 cells constitutively expressing human Mcl-1 were created by transfecting cells with pcDNA-3-Mcl-1 and selecting for transformants in the presence of 400 μg/ml G418. Mouse embryo fibroblasts from E2F1-null animals were grown in DMEM with 15% fetal bovine serum and 1% penicillin/streptomycin. […] The drug was diluted directly into the medium to indicated concentrations followed by incubation at 37° C. Untreated cells and cells treated with DMSO alone behaved identically. Cell lysates were normalized for total protein content (50 μg) and subjected to SDS-PAGE as described previously. Primary antibodies used in these studies consisted of E2F1 (SantaCruz Biotechnology; SC-251), Mcl-1 (Santa Cruz; SC-819), Rb (PharMingen; 14031A), Flag (Sigma; F-3615) and β-actin (Sigma; A5441). Detection of proteins was accomplished using horseradish-peroxidase-conjugated secondary antibodies and enhanced chemiluminescence (ECL) purchased through Amersham. Northern blots were performed as described previously."}, "Mcl-1 [1]": {"tested_on": "Mcl-1", "assay": "Western blot of Mcl-1 in E2F1 knockdown H1299 cells", "type": "cell-based, human", "conditions": "E2F1 knockdown H1299, 8 hours, FIG. 6A", "experimental": "(§2) To generate E2F1 knockdown cell lines H1299 cells were transfected by the calcium phosphate method either with empty BS/U6 RNAi vector or with BS/U6-E2F1 RNAi vector together with pcDNA-3, which encodes a neomycin-selectable marker. Forty-eight hours after transfection, cells were split and cultured in medium containing 400 μg/ml G418. Colonies that emerged from G418 selection were propagated and screened for E2F1 expression by Western blot. Several lines were isolated that had reduced E2F1 expression; the most efficient knockdown cell line, H1299-E2F1RNAi-16, was further characterized. A matching H1299-pBS/U6 cell line was generated in the same way.\n(§3) Cell lysates were normalized for total protein content (50 μg) and subjected to SDS-PAGE as described previously. Primary antibodies used in these studies consisted of E2F1 (SantaCruz Biotechnology; SC-251), Mcl-1 (Santa Cruz; SC-819), Rb (PharMingen; 14031A), Flag (Sigma; F-3615) and β-actin (Sigma; A5441). Detection of proteins was accomplished using horseradish-peroxidase-conjugated secondary antibodies and enhanced chemiluminescence (ECL) purchased through Amersham. Northern blots were performed as described previously."}, "Mcl-1 mRNA": {"tested_on": "Mcl-1 mRNA", "assay": "Northern blot of endogenous Mcl-1 mRNA in wild-type NIH3T3 cells", "type": "cell-based, murine", "conditions": "wild-type 3T3 cells, total RNA, FIG. 5B", "experimental": "as §3"}, "[2]": {"tested_on": "H1299 lung carcinoma cells", "assay": "Apoptosis by Apo-BrdUrd incorporation in H1299 cells", "type": "cell-based, human", "experimental": "(§4) The H1299 non-small cell lung cancer line are grown in DMEM supplemented with 2 mM L-glutamine (Life Technologies, Inc.), 5% fetal bovine serum (Hyclone), and 1% penicillin/streptomycin (Life Technologies, Inc.). NIH3T3 cells constitutively expressing human Mcl-1 were created by transfecting cells with pcDNA-3-Mcl-1 and selecting for transformants in the presence of 400 μg/ml G418. Mouse embryo fibroblasts from E2F1-null animals were grown in DMEM with 15% fetal bovine serum and 1% penicillin/streptomycin. […] The drug was diluted directly into the medium to indicated concentrations followed by incubation at 37° C. Untreated cells and cells treated with DMSO alone behaved identically.\n(§5) Apoptosis was assayed using PharMingen “APO-BrdU” kit without modification. After treatment with flavopiridol, cells were trypsinized and resuspended in PBS. Cells were counted and 1-2×10^6 cells were fixed in 1% paraformaldehyde in PBS on ice, pelleted, washed twice in PBS, and fixed with ice-cold 70% ethanol overnight. The next day, cells were pelleted, resuspended, and washed with wash buffer. Pelleted cells were resuspended with reaction buffer, TdT enzyme, and bromo-dUTP for 1 hour at 37° C. Cells were subsequently rinsed with 1.0 ml of PBS and resuspended with fluorescein-labeled anti-BrdUrd in the dark for 30 min at room temperature. Propidium iodide and RNase were added, and the cells were incubated for 30 min. One×10^4 cells per experimental condition were analyzed for fluorescence on a Becton-Dickinson FACScan using Cell Quest software."}, "[3]": {"tested_on": "H1299-Mcl-1-11 and H1299-Mcl-1-13 cells", "assay": "Apoptosis by Apo-BrdUrd in H1299 cells stably expressing human Mcl-1", "type": "cell-based", "conditions": "200 nM, 48, 72 and 96 hours, FIG. 4B", "experimental": "H1299 cells lines, constitutively expressing human Mcl-1 under control of the CMV promoter, were obtained by transfecting cells with pcDNA3 or pcDNA3-Mcl-1 and selecting for transformants by growth in 400 μg/ml G418. G418-resistant lines were screened for expression of human Mcl-1. Two Mcl-1-positive cell lines emerged and were characterized. A matching G418-resistant H1299-pcDNA3 cell line was generated in the same way. Apoptosis was assayed using PharMingen “APO-BrdU” kit without modification. After treatment with flavopiridol, cells were trypsinized and resuspended in PBS. Cells were counted and 1-2×10^6 cells were fixed in 1% paraformaldehyde in PBS on ice, pelleted, washed twice in PBS, and fixed with ice-cold 70% ethanol overnight. The next day, cells were pelleted, resuspended, and washed with wash buffer. Pelleted cells were resuspended with reaction buffer, TdT enzyme, and bromo-dUTP for 1 hour at 37° C. Cells were subsequently rinsed with 1.0 ml of PBS and resuspended with fluorescein-labeled anti-BrdUrd in the dark for 30 min at room temperature. Propidium iodide and RNase were added, and the cells were incubated for 30 min. One×10^4 cells per experimental condition were analyzed for fluorescence on a Becton-Dickinson FACScan using Cell Quest software."}, "Rb": {"tested_on": "Rb", "assay": "Rb Western blot (Rb phosphorylation) in H1299 cells", "type": "cell-based, human", "conditions": "H1299, 200 nM, time course FIG. 3A", "experimental": "as §3"}, "wild-type NIH3T3 cells": {"tested_on": "wild-type NIH3T3 cells", "assay": "Apoptosis by Apo-BrdUrd in wild-type NIH3T3 cells", "type": "cell-based, murine", "conditions": "200 nM, 48 and 72 hours, FIG. 5C", "experimental": "as §5"}, "[4]": {"tested_on": "H1299 cells lacking E2F1 protein", "assay": "Apoptosis by Apo-BrdUrd in E2F1 knockdown H1299 cells", "type": "cell-based, human", "conditions": "200 nM, 48 and 72 h, FIG. 6B", "experimental": "as §2\n(§6) Apoptosis was assayed using PharMingen “APO-BrdU” kit without modification. After treatment with flavopiridol, cells were trypsinized and resuspended in PBS. Cells were counted and 1-2×10^6 cells were fixed in 1% paraformaldehyde in PBS on ice, pelleted, washed twice in PBS, and fixed with ice-cold 70% ethanol overnight. The next day, cells were pelleted, resuspended, and washed with wash buffer. Pelleted cells were resuspended with reaction buffer, TdT enzyme, and bromo-dUTP for 1 hour at 37° C. […] One×10^4 cells per experimental condition were analyzed for fluorescence on a Becton-Dickinson FACScan using Cell Quest software."}, "Bok": {"tested_on": "Bok", "assay": "Western blot of Bok in H1299 cells", "type": "cell-based, human", "conditions": "H1299, 200 nM"}, "Mcl-1 [5]": {"tested_on": "Mcl-1", "assay": "Western blot of Mcl-1 in H1299 cells", "type": "cell-based, human", "experimental": "as §1"}, "E2F1": {"tested_on": "E2F1", "assay": "Western blot of E2F1 in H1299 cells", "type": "cell-based, human", "experimental": "as §1"}, "[6]": {"tested_on": "E2F1 null mouse embryo fibroblasts", "assay": "Apoptosis by Apo-BrdUrd in E2F1 null mouse embryo fibroblasts", "type": "cell-based", "conditions": "200 nM, 72 hours, FIG. 6C", "experimental": "as §4, §6"}, "Bcl-2": {"tested_on": "Bcl-2", "assay": "Western blot of Bcl-2 in H1299 cells", "type": "cell-based, human", "conditions": "H1299, 200 nM"}, "[7]": {"tested_on": "NIH3T3 cells stably expressing human Mcl-1", "assay": "Apoptosis by Apo-BrdUrd in NIH3T3 cells stably expressing Mcl-1", "type": "cell-based, murine", "conditions": "200 nM, 72 hours, FIG. 5C", "experimental": "as §4, §6"}, "[8]": {"conditions": "H1299, 200 nM, 12 hours, extended time course FIG. 3A"}, "[9]": {"conditions": "H1299, increasing doses, 48 hours, FIG. 1A"}},
  "data": [
    {"smiles": "CN1CC[C@H](c2c(O)cc(O)c3c(=O)cc(-c4ccccc4Cl)oc23)[C@H](O)C1", "note": "[flavopiridol]", "values": [
      {"measurement": "Human Mcl-1 protein levels in stably transfected NIH3T3 cells", "setting": "human Mcl-1", "result": "no changes are seen in the levels of Mcl-1"},
      {"measurement": "Mcl-1 protein levels in H1299 cells lacking E2F1", "setting": "Mcl-1 [1]", "result": "decreased in a manner identical to that of the control cells"},
      {"measurement": "Time within which endogenous Mcl-1 levels are reduced", "setting": "Mcl-1 mRNA", "result": "≤ 6", "unit": "h"},
      {"measurement": "Apoptosis after 48 and 72 hours", "setting": "[2]; H1299, 200 nM, 48 and 72 hours, FIG. 3B", "result": "larger degrees of apoptosis"},
      {"measurement": "Apoptosis after 24 hours", "setting": "[2]; H1299, 200 nM, 24 hours, FIG. 3B", "result": "Minimal levels of apoptosis"},
      {"measurement": "Apoptosis at 36 hours", "setting": "[2]; H1299, 200 nM, 36 hours, FIG. 3B", "result": "apoptosis was evident"},
      {"measurement": "Apoptosis at times <18 hours", "setting": "[2]; H1299, 200 nM, <18 hours, FIG. 2B", "result": "minimal effect on apoptosis"},
      {"measurement": "Apoptosis (Apo-BrdUrd incorporation), dose response", "setting": "[2]; H1299, 48 hours of treatment, FIG. 1B", "result": "minimal elevations in apoptosis, as measured by Apo-BrdUrd incorporation, are seen until a dose of 200 nM was reached"},
      {"measurement": "Apoptosis in stably transfected Mcl-1 clones compared with control cells", "setting": "[3]", "result": "resistant to apoptosis induced by flavopiridol"},
      {"measurement": "Rb phosphorylation", "setting": "Rb", "result": "no changes in Rb phosphorylation"},
      {"measurement": "Apoptosis in wild-type NIH3T3 (pcDNA3 alone)", "setting": "wild-type NIH3T3 cells", "result": "undergoes apoptosis starting after 48 hours but is more pronounced after 72 hours of treatment"},
      {"measurement": "Apoptosis in H1299 cells lacking E2F1 compared with empty RNAi vector cells", "setting": "[4]", "result": "less sensitive to flavopiridol-induced cell death"},
      {"measurement": "Bok levels", "setting": "Bok", "result": "No changes"},
      {"measurement": "Mcl-1 protein levels at 200 nM and higher doses", "setting": "Mcl-1 [5]; H1299, 200 nM and higher, 48 hours, FIG. 1A", "result": "undetectable"},
      {"measurement": "Mcl-1 levels after 12 hours", "setting": "Mcl-1 [5]; [8]", "result": "undetectable"},
      {"measurement": "Mcl-1 levels by 36 hours", "setting": "Mcl-1 [5]; H1299, 200 nM, 36 hours, FIG. 3A", "result": "Low levels of Mcl-1 were apparent"},
      {"measurement": "Time after which Mcl-1 levels began to fall", "setting": "Mcl-1 [5]; H1299, 200 nM, FIG. 2A", "result": 3, "unit": "h"},
      {"measurement": "Time after which Mcl-1 levels were maximally reduced", "setting": "Mcl-1 [5]; H1299, 200 nM, FIG. 2A", "result": 12, "unit": "h"},
      {"measurement": "Mcl-1 protein levels, dose response", "setting": "Mcl-1 [5]; [9]", "result": "significantly reduced starting at the 100-nM dose"},
      {"measurement": "E2F1 levels after 12 hours", "setting": "E2F1; [8]", "result": "E2F1 levels had risen"},
      {"measurement": "E2F1 levels after 72 hours", "setting": "E2F1; H1299, 200 nM, 72 hours, FIG. 3A", "result": "E2F1 levels fell"},
      {"measurement": "Time after which E2F1 levels reached a plateau", "setting": "E2F1; H1299, 200 nM, FIG. 2A", "result": 9, "unit": "h"},
      {"measurement": "Time after which increases in E2F1 protein are apparent", "setting": "E2F1; H1299, 200 nM, FIG. 2A", "result": 3, "unit": "h"},
      {"measurement": "E2F1 protein levels, dose response", "setting": "E2F1; [9]", "result": "markedly elevated starting at the 100-nM dose"},
      {"measurement": "Apoptosis in mouse embryo fibroblast lines lacking E2F1 compared with wild-type littermates", "setting": "[6]", "result": "less sensitive to flavopiridol-induced cell death"},
      {"measurement": "Bcl-2 levels", "setting": "Bcl-2", "result": "No changes"},
      {"measurement": "Apoptosis in NIH3T3 stably expressing Mcl-1", "setting": "[7]", "result": "minimal increases in apoptosis"}
    ]}
  ]
}
